Test results taken from the CheMixHub ionic liquid set.

Assay: xn = mol fraction of the nth substance listed

CCOC(C)=O + CCO + CCCC[n+]1ccn(C)c1.O=S(=O)([N-]S(=O)(=O)C(F)(F)F)C(F)(F)F
298.15 K, 101 kPa
Settings	viscosity [mPa·s]
x2 = 0.0086, x1 = 0.9023	0.967
x2 = 0.0173, x1 = 0.804	1.818
x2 = 0.0216, x1 = 0.8938	0.982
x2 = 0.026, x1 = 0.7051	3.29
x2 = 0.0299, x1 = 0.9014	0.806
x2 = 0.035, x1 = 0.6029	5.36
x2 = 0.0405, x1 = 0.8009	1.644
x2 = 0.0422, x1 = 0.521	7.65
x2 = 0.045, x1 = 0.8887	0.803
x2 = 0.0534, x1 = 0.3936	12.87
x2 = 0.0549, x1 = 0.8911	0.714
x2 = 0.0571, x1 = 0.9051	0.658
x2 = 0.0615, x1 = 0.7971	1.44
x2 = 0.0622, x1 = 0.2942	17.63
x2 = 0.0632, x1 = 0.6895	2.89
x2 = 0.0688, x1 = 0.2189	22.5
x2 = 0.0754, x1 = 0.1444	28.1
x2 = 0.0777, x1 = 0.6181	4.09
x2 = 0.0778, x1 = 0.1168	30.1
x2 = 0.08, x1 = 0.8998	0.526
x2 = 0.0815, x1 = 0.0753	34.1
x2 = 0.0882, x1 = 0.7818	1.308
x2 = 0.0925, x1 = 0.6947	2.35
x2 = 0.0953, x1 = 0.8644	0.656
x2 = 0.0984, x1 = 0.5164	6.16
x2 = 0.0997, x1 = 0.8023	1.05
x2 = 0.1177, x1 = 0.6116	3.32
x2 = 0.1191, x1 = 0.802	0.89
x2 = 0.1234, x1 = 0.3937	9.59
x2 = 0.125, x1 = 0.6908	1.976
x2 = 0.1404, x1 = 0.3101	13.03
x2 = 0.1414, x1 = 0.7989	0.789
x2 = 0.1455, x1 = 0.5201	4.81
x2 = 0.1477, x1 = 0.707	1.521
x2 = 0.1591, x1 = 0.8229	0.523
x2 = 0.1604, x1 = 0.6032	2.8
x2 = 0.1639, x1 = 0.1949	18.29
x2 = 0.1658, x1 = 0.7923	0.681
x2 = 0.1735, x1 = 0.1475	21.3
x2 = 0.183, x1 = 0.6956	1.289
x2 = 0.1841, x1 = 0.0957	24.4
x2 = 0.1843, x1 = 0.392	7.6
x2 = 0.1948, x1 = 0.043	28.1
x2 = 0.1978, x1 = 0.5106	3.97
x2 = 0.1995, x1 = 0.6042	2.19
x2 = 0.2059, x1 = 0.7708	0.557
x2 = 0.213, x1 = 0.2974	10.46
x2 = 0.2132, x1 = 0.6967	1.026
x2 = 0.2314, x1 = 0.6152	1.684
x2 = 0.2434, x1 = 0.1969	14.03
x2 = 0.2448, x1 = 0.6933	0.829
x2 = 0.2449, x1 = 0.394	5.82
x2 = 0.247, x1 = 0.51	3.05
x2 = 0.2609, x1 = 0.1391	16.65
x2 = 0.2729, x1 = 0.0996	18.5
x2 = 0.2797, x1 = 0.6021	1.324
x2 = 0.2857, x1 = 0.2933	8.02
x2 = 0.2868, x1 = 0.0538	21
x2 = 0.2924, x1 = 0.6745	0.658
x2 = 0.2972, x1 = 0.5057	2.33
x2 = 0.3062, x1 = 0.3928	4.4
x2 = 0.3201, x1 = 0.5989	1.006
x2 = 0.3236, x1 = 0.1993	10.53
x2 = 0.3448, x1 = 0.147	12.41
x2 = 0.3553, x1 = 0.4946	1.727
x2 = 0.356, x1 = 0.294	5.97
x2 = 0.3662, x1 = 0.094	14.33
x2 = 0.3681, x1 = 0.3878	3.28
x2 = 0.3736, x1 = 0.5842	0.736
x2 = 0.3833, x1 = 0.0516	16.14
x2 = 0.3974, x1 = 0.502	1.235
x2 = 0.4042, x1 = 0.1983	7.96
x2 = 0.4237, x1 = 0.3973	2.32
x2 = 0.4281, x1 = 0.288	4.46
x2 = 0.4291, x1 = 0.149	9.07
x2 = 0.4547, x1 = 0.0982	10.36
x2 = 0.4684, x1 = 0.4786	0.869
x2 = 0.4784, x1 = 0.0511	11.87
x2 = 0.4799, x1 = 0.3986	1.585
x2 = 0.4832, x1 = 0.1963	5.71
x2 = 0.508, x1 = 0.155	6.45
x2 = 0.5162, x1 = 0.2658	3.24
x2 = 0.5407, x1 = 0.1007	7.42
x2 = 0.5473, x1 = 0.3908	1.023
x2 = 0.5621, x1 = 0.2957	2.03
x2 = 0.5657, x1 = 0.1954	3.92
x2 = 0.574, x1 = 0.0452	8.7
x2 = 0.598, x1 = 0.1495	4.39
x2 = 0.6293, x1 = 0.2115	2.49
x2 = 0.6333, x1 = 0.0992	5.1
x2 = 0.6413, x1 = 0.2861	1.252
x2 = 0.6634, x1 = 0.0564	5.74
x2 = 0.6743, x1 = 0.1551	2.84
x2 = 0.7038, x1 = 0.1181	3.11
x2 = 0.7282, x1 = 0.1894	1.533
x2 = 0.7476, x1 = 0.0632	3.67
x2 = 0.7565, x1 = 0.1579	1.636
x2 = 0.8052, x1 = 0.1037	1.848
x2 = 0.8459, x1 = 0.0584	2.09

CCCC[n+]1ccn(C)c1.F[P-](F)(F)(F)(F)F + CCOC(C)=O
298.15 K
Settings	electrical conductivity, x2 = 0.2746 [S/m]	electrical conductivity, x2 = 0.4156 [S/m]	electrical conductivity, x2 = 0.7532 [S/m]	electrical conductivity, x2 = 0.8821 [S/m]	viscosity, x2 = 0.2746 [mPa·s]	viscosity, x2 = 0.4156 [mPa·s]	viscosity, x2 = 0.6524 [mPa·s]	viscosity, x2 = 0.7532 [mPa·s]	viscosity, x2 = 0.8821 [mPa·s]
101 kPa	0.452	0.67	1.12	0.726	60.7	27.8	–	3.33	1.43
101.3 kPa	–	–	–	–	–	–	6.22	–	–

CC(=O)c1ccccc1 + CCOS(=O)(=O)[O-].CC[n+]1ccn(C)c1
100 kPa
Settings	viscosity [mPa·s]
293.15 K, x1 = 0.7973	4.3
303.15 K, x1 = 0.2	27.1
303.15 K, x1 = 0.4002	16.4
303.15 K, x1 = 0.7973	5.3
303.15 K, x1 = 0.9502	2.48
303.15 K, x1 = 1	1.65
313.15 K, x1 = 0.6921	5.6
313.15 K, x1 = 0.8999	3.3
313.15 K, x1 = 0.9502	2
313.15 K, x1 = 1	1.37
323.15 K, x1 = 0.3008	10.7
323.15 K, x1 = 0.5999	5.8
323.15 K, x1 = 0.8999	1.94
323.15 K, x1 = 1	1.17
333.15 K, x1 = 0.0505	16.2
333.15 K, x1 = 0.0997	14.2

CC[n+]1ccn(C)c1.O=S(=O)([O-])O + CC[C@H](C)[C@H](N)C(=O)O + O
viscosity [mPa·s], 100 kPa
Settings	293.15 K	298.15 K	303.15 K	308.15 K	313.15 K
x2 = 0, x1 = 0.0005421	1.046	0.929	0.824	0.75	0.678
x2 = 0, x1 = 0.0009056	1.068	0.949	0.843	0.759	0.684
x2 = 0, x1 = 0.001263	1.073	0.966	0.866	0.78	0.697
x2 = 0.0004219, x1 = 0.0009052	1.093	0.961	0.853	0.769	0.693
x2 = 0.0004673, x1 = 0.001263	1.101	0.979	0.878	0.79	0.708
x2 = 0.0005036, x1 = 0.0005418	1.075	0.943	0.837	0.762	0.69
x2 = 0.0007653, x1 = 0.0009049	1.113	0.97	0.862	0.777	0.701
x2 = 0.0008312, x1 = 0.0005417	1.094	0.953	0.845	0.77	0.697
x2 = 0.000832, x1 = 0.001262	1.122	0.989	0.887	0.799	0.716
x2 = 0.0009488, x1 = 0.0005416	1.1	0.956	0.848	0.773	0.7
x2 = 0.00107, x1 = 0.0009046	1.131	0.979	0.87	0.785	0.708
x2 = 0.001216, x1 = 0.001262	1.145	0.999	0.897	0.808	0.724
x2 = 0.001364, x1 = 0.001262	1.154	1.003	0.901	0.812	0.728
x2 = 0.001515, x1 = 0.0009042	1.157	0.991	0.881	0.795	0.717
x2 = 0.001572, x1 = 0.0005413	1.136	0.973	0.864	0.789	0.714
x2 = 0.001693, x1 = 0.0005412	1.143	0.977	0.867	0.792	0.717
x2 = 0.001746, x1 = 0.001261	1.176	1.013	0.91	0.821	0.736
x2 = 0.001796, x1 = 0.000904	1.174	0.999	0.888	0.802	0.724
x2 = 0.002205, x1 = 0.0009036	1.198	1.01	0.898	0.812	0.733
x2 = 0.002228, x1 = 0.0005409	1.174	0.991	0.881	0.805	0.729
x2 = 0.002256, x1 = 0.001261	1.206	1.027	0.923	0.833	0.747
x2 = 0.002728, x1 = 0.00126	1.23	1.04	0.935	0.844	0.758
